In US20230407243A1, “GENETIC PLATFORM TO INVESTIGATE THE FUNCTIONS OF BACTERIAL DRUG EFFLUX PUMPS” (priority 2022, published 2023):

Columns and labels:
Format in all cases: cell-based, Escherichia coli
EKO-35 araC::acrEF Pore = assay: MIC susceptibility profiling, porinated efflux platform; details: for MIC: Escherichia coli, Table 14A, porinated, technical duplicate, read-out: Minimum inhibitory concentration, EKO-35 araC::acrEF Pore; for Fold changes of MICs: EKO-35 araC::acrEF Pore compared to EKO-35-Pore
Outline: (§1)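 E. coli strains carrying a genomically integrated constitutive fhuA ΔC/Δ4L pore were grown 18 h in LB at 37 °C, then diluted 1/2000 in MHB II from OD600 ~1.0. Compounds were tested in duplicate, 2-fold serial titration, for 18 h at 37 °C with shaking. MIC came from OD600 with the pre-incubation background subtracted.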

EKO-35 araC::macAB Pore = assay: as above; details: for MIC: Escherichia coli, EKO-35 araC::macAB Pore, technical duplicate, read-out: Minimum inhibitory concentration; for Fold changes of MICs: EKO-35 araC::macAB Pore compared to EKO-35-Pore
Outline: as §1

EKO-35 araC::emrAB Pore = assay: as above; details: for MIC: Escherichia coli, EKO-35 araC::emrAB Pore, technical duplicate, read-out: Minimum inhibitory concentration; for Fold changes of MICs: EKO-35 araC::emrAB Pore compared to EKO-35-Pore
Outline: as §1

EKO-35 araC::emrKY Pore = assay: as above; details: for MIC: Escherichia coli, EKO-35 araC::emrKY Pore, technical duplicate, read-out: Minimum inhibitory concentration; for Fold changes of MICs: EKO-35 araC::emrKY Pore compared to EKO-35-Pore
Outline: as §1

EKO-35 araC::mexCD Pore = assay: as above; details: for MIC: Escherichia coli, EKO-35 araC::mexCD Pore, technical duplicate, read-out: Minimum inhibitory concentration; for Fold changes of MICs: EKO-35 araC::mexCD Pore compared to EKO-35-Pore
Outline: as §1

[1] = tested on: EKO-35 araC::acrBD408A Pore; assay: as above; details: for MIC: Escherichia coli, EKO-35 araC::acrBD408A Pore, technical duplicate, read-out: Minimum inhibitory concentration; for Fold changes of MICs: EKO-35 araC::acrBD408A Pore compared to EKO-35-Pore
Outline: as §1

EKO-35 araC::acrD Pore = assay: as above; details: for MIC: Escherichia coli, Table 14A, porinated, technical duplicate, read-out: Minimum inhibitory concentration, EKO-35 araC::acrD Pore; for Fold changes of MICs: EKO-35 araC::acrD Pore compared to EKO-35-Pore
Outline: as §1

EKO-35-Pore = assay: Checkerboard synergy (FICI), porinated strain
Description: (§2) Synergy measurement using checkerboard analysis was performed in 96-well microtiter plates using the microdilution broth method, according to CLSI guidelines (Patel J. B., 2015). The cell inocula were prepared using the colony resuspension method. The minimum inhibitory concentrations (MICs) were defined as the lowest concentration that provided no growth, as determined by measurement of the OD600nm using a Synergy H1 microplate reader (BioTek). Susceptibility testing was performed in MHB II with a final volume of 100 μL. PAI3N (Bachem Americas) was solubilized in MHB II. […] Solvent controls were included in each plate.
(§3) The Fractional Inhibitory Concentration Index (FICI) was used to assess the synergy of PAI3N in combination with different antibiotics. The FICI represents the ΣFIC of each drug. The FICI for each drug was calculated using the following formula: FICI=FICA+FICB=(CA/MICA)+(CB/MICB). Where MICA and MICB are the MICs of drugs A (PAI3N/NMP) and B (antibiotic) alone, and CA and CB are the MICs of the drugs in combination. The effects of PAβN or NMP in combination with antibiotics were classified as: synergistic (FICI<0.5), additive (FICI>0.5-1.0), indifferent (FICI>1.0-2.0), and antagonistic (FICI>2.0). Fold increases in resistance provided by efflux pumps were calculated by dividing the MIC values of strains expressing efflux pumps by the MIC value of EKO-35.

[2] = tested on: EKO-35 porinated strain expressing acrB; assay: Checkerboard synergy (FICI), porinated strain
Description: as §2, §3

[3] = tested on: EKO-35-Pore acrBD408A (functionally inactive AcrB variant); assay: Checkerboard synergy (FICI), porinated strain
Description: as §2, §3

[4] = porinated efflux-deficient strains
[5] = strain EKO-35 Pore, NMP + antibiotic
[6] = strain EKO-35 Pore, antibiotic alone
[7] = EKO-35 acrB Pore, NMP + antibiotic
[8] = EKO-35 acrB Pore, PAβN + antibiotic
[9] = strain EKO-35 acrB Pore, NMP + antibiotic
[10] = strain EKO-35 acrB Pore, antibiotic alone
[11] = strain EKO-35 acrB Pore, antibiotic in combination with NMP
[12] = EKO-35 acrBD408A Pore, NMP + antibiotic
[13] = EKO-35 acrBD408A Pore, PAβN + antibiotic
[14] = strain EKO-35 acrBD408A Pore, NMP + antibiotic
[15] = strain EKO-35 acrBD408A Pore, antibiotic in combination with NMP

Row | Structure (SMILES) | MIC (EKO-35 araC::acrEF Pore) [µg/mL] | MIC (EKO-35 araC::macAB Pore) [µg/mL] | MIC (EKO-35 araC::emrAB Pore) [µg/mL] | MIC (EKO-35 araC::emrKY Pore) [µg/mL] | MIC (EKO-35 araC::mexCD Pore) [µg/mL] | MIC [1] [µg/mL] | MIC (EKO-35 araC::acrD Pore) [µg/mL] | FICI (EKO-35-Pore; EKO-35 Pore, NMP + antibiotic) | Effect (EKO-35-Pore; [5]) | FICI (EKO-35-Pore; [5]) | MICb Alone (EKO-35-Pore; [6]) [µg/mL] | FICI [2, 7] | Effect [2, 9] | FICI [2, 9] | MICb Alone [2, 10] [µg/mL] | MICb Combined [2, 11] [µg/mL] | FICI [3, 12] | Effect [3, 14] | FICI [3, 14] | MICb Combined [3, 15] [µg/mL] | further results
1 | CC[C@H]1OC(=O)[C@H](C)[C@@H](O[C@H]2C[C@@](C)(OC)[C@@H](O)[C@H](C)O2)[C@H](C)[C@@H](O[C@@H]2O[C@H](C)C[C@H](N(C)C)[C@H]2O)[C@](C)(O)C[C@@H](C)C(=O)[C@H](C)[C@@H](O)[C@]1(C)O [erythromycin] | 1.56 | 0.781 | 0.195 | 0.195 | 1.56 | 0.098 | 0.195 | 0.770 | Additive (additive (FICI >0.5-1.0)) | 0.770 | 0.25 | 0.563 | Additive (additive (FICI >0.5-1.0)) | 0.563 | 8 | 0.5 | 0.735 | Additive (additive (FICI >0.5-1.0)) | 0.735 | 0.063 | Effect (EKO-35-Pore; EKO-35 Pore, NMP + antibiotic): Additive; Effect (EKO-35-Pore; EKO-35 Pore, PAβN + antibiotic): Additive; FICI (EKO-35-Pore; EKO-35 Pore, PAβN + antibiotic): 0.610; MICb Alone (EKO-35-Pore; EKO-35 Pore, antibiotic alone (PAβN checkerboard)): 0.13 µg/mL; MICb Combined (EKO-35-Pore; EKO-35 Pore, antibiotic in combination with PAβN): 0.063 µg/mL; interaction of NMP in combination with the labelled antibiotic (FICI) (EKO-35-Pore; [4]): no longer synergistic; interaction of PAβN in combination with the labelled antibiotic (FICI) (EKO-35-Pore; [4]): no longer synergistic; MICb Combined (EKO-35-Pore; strain EKO-35 Pore, antibiotic in combination with NMP): 0.13 µg/mL; Effect [2, 7]: Additive; Effect [2, 8]: Synergistic; FICI [2, 8]: 0.078; MICb Alone ([2]; EKO-35 acrB Pore, antibiotic alone (PAβN checkerboard)): 32 µg/mL; MICb Combined ([2]; EKO-35 acrB Pore, antibiotic in combination with PAβN): 0.5 µg/mL; Effect [3, 12]: Additive; Effect [3, 13]: Additive; FICI [3, 13]: 0.735; MICb Alone ([3]; EKO-35 acrBD408A Pore, antibiotic alone (PAβN checkerboard)): 0.13 µg/mL; MICb Combined ([3]; EKO-35 acrBD408A Pore, antibiotic in combination with PAβN): 0.063 µg/mL; MICb Alone ([3]; strain EKO-35 acrBD408A Pore, antibiotic alone): 0.13 µg/mL
2 | CC[n+]1c(-c2ccccc2)c2cc(N)ccc2c2ccc(N)cc21 [ethidium bromide] | 1.56 | 0.098 | 0.098 | 0.098 | 0.781 | 0.098 | 0.195 | 0.508 | Additive (additive (FICI >0.5-1.0)) | 0.508 | 0.488 | 0.191 | Synergistic (Synergy (FICI ≤0.5)) | 0.191 | 15.6 | 2 | 1.000 | — (indifferent (FICI >1.0)) | 1.000 | 0.122 | Fold changes of MICs (EKO-35 araC::acrEF Pore): 16 fold; Fold changes of MICs (EKO-35 araC::macAB Pore): 1 fold; Fold changes of MICs (EKO-35 araC::emrAB Pore): 1 fold; Fold changes of MICs (EKO-35 araC::emrKY Pore): 1 fold; Fold changes of MICs (EKO-35 araC::mexCD Pore): 8 fold; Fold changes of MICs [1]: 1 fold; Fold changes of MICs (EKO-35 araC::acrD Pore): 2 fold
3 | CN[C@H](CC(C)C)C(=O)N[C@H]1C(=O)N[C@@H](CC(N)=O)C(=O)N[C@H]2C(=O)N[C@H]3C(=O)N[C@H](C(=O)N[C@H](C(=O)O)c4cc(O)cc(O)c4-c4cc3ccc4O)[C@H](O)c3ccc(c(Cl)c3)Oc3cc2cc(c3O[C@@H]2O[C@H](CO)[C@@H](O)[C@H](O)[C@H]2O[C@H]2C[C@](C)(N)[C@H](O)[C@H](C)O2)Oc2ccc(cc2Cl)[C@H]1O [vancomycin] | – | 6.25 | – | – | 6.25 | 6.25 | – | – | – | – | – | – | – | – | – | – | – | – | – | – | Fold changes of MICs (EKO-35 araC::acrEF Pore): 1 fold; Fold changes of MICs (EKO-35 araC::macAB Pore): 1 fold; Fold changes of MICs (EKO-35 araC::emrAB Pore): 1 fold; Fold changes of MICs (EKO-35 araC::emrKY Pore): 1 fold; Fold changes of MICs (EKO-35 araC::mexCD Pore): 1 fold; Fold changes of MICs [1]: 1 fold; Fold changes of MICs (EKO-35 araC::acrD Pore): 1 fold
